Data reported in patent US6376480B1, “Vitamin D derivatives with substituents at C-25, process for their production, intermediate products and use for the production of pharmaceutical agents” (Schering Aktiengesellschaft, priority 1995, dated 2002).

Key:
HL 60 cells [1] = assay: differentiation induction of HL 60 cells to macrophages (NBT reduction); assay type: cell-based, human; conditions: DR = test substance dose/calcitriol dose for comparable semi-maximum effects; 96 hours incubation
Procedure: It is known in the literature (Mangelsdorf, D. J. et al., J. Cell. Biol. 98: 391-398 (1984)), that the treatment of human leukemia cells (promyelocyte cell line HL 60) in vitro with calcitriol induces the differentiation of cells to macrophages.
HL 60 cells are cultivated in tissue culture medium (RPMI 10% fetal calf serum) at 37° C. in an atmosphere of 5% CO2 in air.
For substance testing, the cells are centrifuged off, and 2.0×10^5 cells/ml in phenol red-free tissue culture medium is taken up. The test substances are dissolved in ethanol and diluted with tissue culture medium without phenol red to the desired concentration. The dilution stages are mixed with the cell suspension at a ratio of 1:10, and 100 μl each of this cell suspension that is mixed with substance is pipetted into an indentation of a 96-hole plate. For control, a cell suspension is mixed analogously with the solvent.
After incubation for 96 hours at 37° C. in 5% CO2 in air, 100 μl of an NBT-TPA solution (nitro blue tetrazolium (NBT), final concentration in the batch of 1 mg/ml, tetradecanoyl phorbolmyristate-13-acetate (TPA), final concentration in the batch of 2×10^−7 mol/l) is pipetted into each indentation of the 96-hole plate in the cell suspension.
By incubation for 2 hours at 37° C. and 5% CO2 in air, NBT is reduced to insoluble formazan because of the intracellular oxygen radical release, stimulated by TPA, in the cells that are differentiated to macrophages.
To complete the reaction, the indentations of the 96-hole plate are suctioned off, and the cells are affixed to the bottom of the plate by adding methanol and dried after affixing. To dissolve the intracellular formazan crystals that are formed, 100 μl of potassium hydroxide (2 mol/l) and 100 μl of dimethyl sulfoxide are pipetted into-each indentation and ultrasonically treated for 1 minute. The concentration of formazan is measured by spectrophotometry at 650 nm.
As a yardstick for the differentiation induction of HL 60 cells to macrophages, the concentration of formed formazan applies.

calcitriol receptor = target: T1, calcitriol receptor (Sus scrofa, UniProt A3RGC1); assay: calcitriol-receptor test (competition with 3H-calcitriol); conditions: quotient of concentrations of test substance and calcitriol for 50% competition, receptor protein from intestines of juvenile pigs
T1 sequence (A3RGC1 1-427): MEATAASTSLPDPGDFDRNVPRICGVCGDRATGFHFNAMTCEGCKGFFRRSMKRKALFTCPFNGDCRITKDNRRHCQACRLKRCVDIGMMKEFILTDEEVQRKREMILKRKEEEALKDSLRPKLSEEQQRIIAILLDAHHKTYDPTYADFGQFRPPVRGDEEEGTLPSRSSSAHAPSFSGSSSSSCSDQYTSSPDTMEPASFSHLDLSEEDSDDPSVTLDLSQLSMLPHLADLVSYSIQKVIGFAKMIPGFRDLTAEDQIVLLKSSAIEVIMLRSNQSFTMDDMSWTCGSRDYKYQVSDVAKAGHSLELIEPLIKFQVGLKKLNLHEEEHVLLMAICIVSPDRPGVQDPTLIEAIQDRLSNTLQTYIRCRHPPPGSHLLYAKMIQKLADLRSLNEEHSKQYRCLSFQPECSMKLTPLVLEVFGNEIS
Procedure: The vitamin D activity of the substances according to the invention is determined with the aid of the calcitriol-receptor test. It is carried out with use of a specific receptor protein from the intestines of juvenile pigs.
Then, the samples are centrifuged at 10,000×g for 5 minutes at 4° C. The supernatant is decanted and measured in a β-counter after 1 hour of equilibration in Picofluor 15™.
The competition curves that are obtained with various concentrations of test substance as well as of reference substance (unlabeled calcitriol) at constant concentration of the reference substance (^3H-calcitriol) are placed in relation to one another and a competition factor (KF) is determined.
It is defined as a quotient of the concentrations of the respective test substance and the reference substance, which are necessary for 50% competition: [formula]

healthy male rats = assay: acute hypercalcemic action after one-time subcutaneous administration; assay type: in vivo, rat; conditions: DR = test substance dose/calcitriol dose for comparable effects, serum-calcium
Procedure: To determine the acute hypercalcemic action of various calcitriol derivatives, the test that is described below is carried out:
The action of control (solution base), reference substance (1,25(OH)2—D3=calcitriol) and test substance is tested in each case after one-time subcutaneous administration in groups of 10 healthy male rats (140-170 g). During the testing time, the rats are kept in special cages to determine the excretion of water and mineral substances. Urine is collected in 2 fractions (0-16 hours and 16-22 hours). An oral dose of calcium (0.1 mmol of calcium in 6.5% alpha-hydroxypropylcellulose, 5 ml/animal) replaces at 1600 hours the calcium intake that is lacking by food deprivation. At the end of the test, the animals are killed by decapitation and exsanguinated to determine the serum-calcium values. For the primary screen test in vivo, an individual standard dose (200 μg/kg) is tested. For selected substances, the result is supported by establishing a dose-effect relation.
A hypercalcemic action is shown in serum-calcium level values that are higher than in the control.
The significance of differences between substance groups and controls and between test substance and reference substance are supported with suitable statistical processes.

HL 60 cells [2] = assay: antagonism of the action of calcitriol in HL 60 cells; assay type: cell-based, human

Competition Factor KF for Receptor Bonding (calcitriol receptor) | dose ratio for hypercalcemia (healthy male rats) | Compound | Dose Ratio for Differentiation Induction in HL 60 Cells (HL 60 cells [1]) | antagonism of the action of calcitriol in HL 60 cells (HL 60 cells [2])
1 | 300 | C=C1C(=CC=C2CCCC3(C)C2CCC3C(C)C=CC(O)C2(C(C)=O)CC2)CC(O)CC1O [Compound 7b, (5Z,7E,22E)-(1S,3R,24R)-25-Acetyl-26,27-cyclo-9,10-secocholesta-5,7,10(19),22-tetraene-1,3,24-triol] | 0.5 | –
2 | 100 | C=C1/C(=C\C=C2/CCC[C@]3(C)[C@@H]([C@H](C)/C=C/[C@@H](O)C4(C(=O)CCC)CC4)CC[C@@H]23)C[C@@H](O)C[C@@H]1O [Compound 8b, (5Z,7E,22E)-(1S,3R,24R)-25-(1-oxobutyl)-26,27-cyclo-9,10-secocholesta-5,7,10(19),22-tetraene-1,3,24-triol] | 0.9 | –
6 | 300 | C=C1/C(=C\C=C2/CCC[C@]3(C)[C@@H]([C@H](C)/C=C/[C@@H](O)C4(C(=O)C(C)(C)C)CC4)CC[C@@H]23)C[C@@H](O)C[C@@H]1O [Compound 15b, (5Z,7E,22E)-(1S,3R,24R)-25-(2,2-Dimethyl-1-oxopropyl)-26,27-cyclo-9,10-secocholesta-5,7,10(19),22-tetraene-1,3,24-triol] | 1.1 | –
2 | – | C=C1/C(=C\C=C2/CCC[C@]3(C)[C@@H]([C@H](C)/C=C/[C@@H](O)C4(C(=O)/C=C/CCC)CC4)CC[C@@H]23)C[C@@H](O)C[C@@H]1O [Compound 18b, [5Z,7E,22E,25(E)]-(1S,3R,24R)-25-(1-Oxo-2-hexenyl)-26,27-cyclo-9,10-secocholesta-5,7,10(19),22-tetraene-1,3,24-triol] | 330 | antagonize the action of calcitriol

Second part, the molecule before the results:

Compound | Competition Factor KF for Receptor Bonding (calcitriol receptor) | dose ratio for hypercalcemia (healthy male rats) | Dose Ratio for Differentiation Induction in HL 60 Cells (HL 60 cells [1]) | antagonism of the action of calcitriol in HL 60 cells (HL 60 cells [2])
C=C1/C(=C\C=C2/CCC[C@]3(C)[C@@H]([C@H](C)CCCC(C)(C)O)CC[C@@H]23)C[C@@H](O)C[C@@H]1O [Calcitriol, 1α,25-dihydroxy vitamin D3, reference compound] | – | 1 | 1 | –
C=C1/C(=C\C=C2/CCC[C@]3(C)[C@@H]([C@H](C)/C=C/[C@@H](O)C4(C(=O)C#CCCC)CC4)CC[C@@H]23)C[C@@H](O)C[C@@H]1O [Compound 19b, (5Z,7E,22E)-(1S,3R,24R)-25-(1-Oxo-2-hexinyl)-26,27-cyclo-9,10-secocholesta-5,7,10(19),22-tetraene-1,3,24-triol] | 2 | > 300 | 1.5 | –
C=C1/C(=C\C=C2/CCC[C@]3(C)[C@@H]([C@H](C)/C=C/[C@@H](O)C4(/C=C/C(=O)OCC)CC4)CC[C@@H]23)C[C@@H](O)C[C@@H]1O [Compound 24b, [5Z,7E,22E,25(E)]-(1S,3R,24R)-25-(3-Ethoxy-3-oxo-1-propenyl)-26,27-cyclo-9,10-secocholesta-5,7,10(19),22-tetraene-1,3,24-triol] | 4 | – | >1000 | antagonize the action of calcitriol
